This is an account of results in patent US9790196B2, “Lysine demethylase inhibitors for diseases and disorders associated with Flaviviridae” (Oryzon Genomics, S.A., priority 2010, dated 2017).

Like-named read-outs stand apart in the source and are kept apart here.

In general, IC50 refers to the midpoint of a concentration-inhibition curve.

Data set [1] can be described thus: Maximum tolerated dose study. Format: in vivo. The following applies: mice, IP, 20, 40 and 60 mg/kg daily for 5 days. As for the experimental part:
(§1) Maximum tolerated dose studies and pharmacokinetics for several LSD1 inhibitors were assessed to determine if the compounds can be administered to mammals safely at doses that are expected to achieve therapeutic effects. In particular, Compound X was given to mice IP at 20 mg/kg, 40 mg/kg and 60 mg/kg daily for 5 days in a MTD study conducted at Leitat.

Data set [2] relates to HCV RNA replicon in Huh7 ET (luc-ubi-neo/ET) cells. Briefly: microbe, parasite or virus in culture. Type of data set: cell-based. As for the experimental part: Anti-HCV assays were conducted at Southern Research Organization using an HCV RNA replicon with a luciferase reporter.
Southern Research reports that they use cell line Huh7 ET (luc-ubi-neo/ET) containing a HCV RNA replicon with a luciferase (LUC) reporter. […] This composition of the replicon is shown as follows
The HCV RNA replicon ET contains the 5′ NTR (IRES) of HCV (5′) which drives the production of a firefly luciferase (Luc), ubiquitin (Ubiq), and neomycin phosphotransferase (Neo) fusion protein. Ubiquitin cleavage releases the LUC and Neo genes. The EMCV IRES element (E-I) controls the translation of the HCV […] proteins NS3-NS5 and is located between Neo and NS3. The NS3 protein cleaves the HCV polyprotein to release the mature NS3, NS4A, NS4B, NS5A and NS5B proteins that are required for HCV replication. At the 3′ end of the replicon is the authentic 3′ NTR of HCV. The LUC reporter is used as an indirect measure of HCV replication. The activity of the LUC reporter is directly proportional to HCV RNA levels and positive control antiviral compounds behave comparably using either LUC or RNA endpoints.
(§2) The effect of drug added in triplicate at concentrations of from e.g., 0 to 100 uM using half log dilutions on HCV RNA-derived LUC activity and cytotoxicity. Human interferon alpha-2b is included in each run as a positive control compound. Subconfluent cultures of the ET line are plated out into 96-well plates that are dedicated for the analysis of cell numbers (cytotoxicity) or antiviral activity and the next day drugs are added to the appropriate wells. Cells are processed 72 hr later when the cells are still subconfluent. Compound cytotoxicity is assessed as the percent viable cells relative to the untreated cell controls.

Data set [3] in a line: in vitro. The following applies: human, Cytotoxicity IC50, 72 hr. As for the experimental part: as §2
In data set [4] the test system is Huh7 ET (luc-ubi-neo/ET) cells. Briefly: in vitro. The following applies: read-out: Cytotoxicity IC50; 72 hr. As for the experimental part:
as §2

Data set [5] can be described thus: PK studies (Cmax). Format: in vivo, mice. The following applies: at the MTD study doses. As for the experimental part:
as §1

The subject of data set [6] is H3K4 methylation in SH-SY5Y cells. Briefly: Western blot for dimethylated H3K4 in SH-SY5Y cells. Type of data set: cell-based. The source says:
[…]. B-actin was used as a loading control.

Take `NC1CC1c1ccc(-c2cccc(O)c2)cc1` (centres unmarked) [Compound X]: the “tolerability in MTD study” value in data set [1] was “tolerated with acceptable toxicity”. Besides, the EC50 is less than 320 nM in data set [2] (HCV RNA-derived LUC activity, 72 hr, read-out: Antiviral Activity EC50); 490 nM in data set [2] (Hepatitis C virus, Huh7 ET, 72 h, HCV RNA-derived LUC activity, 72 hr, read-out: Antiviral Activity EC50); 300 to 500 nM in data set [2] (Hepatitis C virus, Huh7 ET, read-out: anti-HCV activity in HCV RNA replication assay). Besides, the values for the IC50 in data set [3] and in data set [4] were 54800 nM and 50600 nM, respectively. The Cmax result in data set [5] was “expected to result in therapeutic levels”.

As to `NC(=O)CNC1CC1c1ccc(OCc2ccccc2)cc1` (centres unmarked) [Dual-1], in data set [6], the “potency at increasing global dimethylated H3K4 levels as compared to tranylcypromine” value is not below 10 fold.
